Source: US20240116946A1 (Gilead Sciences, Inc., priority 2022, published 2024)
Where two headings read alike, the source gives them in different places.

Key:
[1] = target: recombinant SARS-CoV-2 Main protease (Mpro) (Severe acute respiratory syndrome coronavirus 2 (2019-nCoV) (SARS-CoV-2), UniProt P0DTD1); test: Cov Mpro Biochemical IC50 Assay; conditions: read-out: MPro IC50
SARS-CoV-2-NLuc = test: microbe, parasite or virus in culture; format: cell-based, SARS Coronavirus 2
[2] = recombinant SARS-CoV-2 Mpro 7.5 nM, fluorogenic peptide substrate 40 μM
[3] = Severe acute respiratory syndrome coronavirus, 48 h, read-out: MPro EC50
[4] = recombinant SARS-CoV-2 Mpro, fluorogenic peptide substrate
[5] = Severe acute respiratory syndrome coronavirus, 48 h; read-out: MPro EC50

SMILES	IC50 [1, 2] [nM]	EC50 (SARS-CoV-2-NLuc; [3]) [nM]	IC50 [1, 4] [nM]	EC50 (SARS-CoV-2-NLuc; read-out: MPro EC50) [nM]	EC50 (SARS-CoV-2-NLuc; [5]) [nM]
COc1cc(-c2cc3[nH]c(=O)n(-c4cncc5cccnc45)c(=O)c3cc2OC)c(C#N)cc1F [Example 684]	13.5	119	–	–	–
COc1cc(-c2cc3c(s2)c(=O)n(-c2nncc4c(C)nn(C)c24)c(=O)n3CCC#N)c(Cl)cc1F [Example 892]	13.5	32.9	–	–	–
O=c1[nH]c2cc(-c3cc(Cl)cc(Cl)c3)ccc2c(=O)n1-c1cncc2ccccc12 [Example 53]	–	4330	33200	–	–
Cc1cc(F)ccc1-c1cc2[nH]c(=O)n(-c3cncc4ccccc34)c(=O)c2s1 [Example 177]	–	137	89.7	–	–
O=c1[nH]c2cc(-c3ccccc3Cl)sc2c(=O)n1-c1cncc2ccc(N3CCN(C4COC4)CC3)cc12 [Example 392]	–	6.75	< 2.54	–	–
COc1cc(Cl)c(-c2cc3[nH]c(=O)n(-c4cncc5ccccc45)c(=O)c3s2)cc1F [Example 725]	8.5	19.4	–	–	–
COc1cc(-c2cc3[nH]c(=O)n(-c4cncc5cccc(F)c45)c(=O)c3cc2OC)c(C#N)cc1F [Example 682]	20.2	33	–	–	–
Cc1cnc(Cl)c(-c2cc3[nH]c(=O)n(-c4cncc5cnn(C)c45)c(=O)c3s2)c1 [Example 669]	336	> 1000	–	–	–
N#CCCn1c(=O)n(-c2cncc3ccc(C#N)cc23)c(=O)c2sc(-c3ccc(F)cc3Cl)cc21 [Example 1063]	17.9	39.9	–	–	–
O=c1c2sc(-c3ccccc3Cl)cc2n(Cc2ccncc2)c(=O)n1-c1cncc2ccccc12 [Example 157]	–	204	164	–	–
Cn1nnc2cncc(-n3c(=O)c4sc(-c5ccc(F)cc5Cl)cc4n(CCC#N)c3=O)c21 (single isomer, unassigned) [Example 1029, 3-[6-(2-chloro-4-fluoro-phenyl)-3-(1-methyltriazolo[4,5-c]pyridin-7-yl)-2,4-dioxo-thieno[3,2-d]pyrimidin-1-yl]propanenitrile]	582	–	–	> 1000	–
CCn1cc(-c2cccc(Cl)c2-c2ccc3c(=O)n(-c4cncc5ccccc45)c(=O)[nH]c3c2)c(C)n1 [Example 275]	–	17.9	23.3	–	–
COc1ccc(Cl)c(-c2ccc3c(=O)n(-c4cncc5ccc(N6CC7(CCOC7)C6)cc45)c(=O)[nH]c3c2)c1 [Example 410]	12.8	–	–	–	58.6
Cc1cccc(-c2cc3[nH]c(=O)n(-c4cncc5ccccc45)c(=O)c3s2)c1Cl [Example 11]	–	638	4820	–	–
COc1ccc(Cl)c(-c2cc3[nH]c(=O)n(-c4cncc5ccc(N6CCOCC6=O)cc45)c(=O)c3s2)c1 [Example 573, 6-(2-chloro-5-methoxyphenyl)-3-(6-(3-oxomorpholino)isoquinolin-4-yl)thieno[3,2-d]pyrimidine-2,4(1H,3H)-dione]	3.26	–	–	–	20.1
COc1cc(-c2cc3[nH]c(=O)n(-c4cncc5c4CCCC5)c(=O)c3s2)c(Cl)cc1F [Example 729]	6.1	–	–	–	7.78
O=c1[nH]c2cc(-c3c(Cl)ccc4c3OCO4)ccc2c(=O)n1-c1cncc2ccccc12 [Example 172]	–	75.8	159	–	–
Cc1cc(F)cc(Cl)c1-c1cc2[nH]c(=O)n(-c3cncc4ccccc34)c(=O)c2s1 [Example 720]	110	100	–	–	–
COc1ccc(-n2cc(-c3cccc(Cl)c3-c3ccc4c(=O)n(-c5cncc6ccccc56)c(=O)[nH]c4c3)c(C)n2)cc1 [Example 283]	–	94.4	240	–	–

SMILES	IC50 [1, 2] [nM]	EC50 (SARS-CoV-2-NLuc; [3]) [nM]	IC50 [1, 4] [nM]	EC50 (SARS-CoV-2-NLuc; read-out: MPro EC50) [nM]	EC50 (SARS-CoV-2-NLuc; [5]) [nM]
N#CCCn1c(=O)n(-c2cccnc2)c(=O)c2sc(-c3ccc(F)cc3Cl)cc21 [Example 800]	32.6	–	–	–	114
COc1cccc(C#N)c1-c1cc2[nH]c(=O)n(-c3cncc4ccccc34)c(=O)c2s1 [Example 536]	21.2	46.4	–	–	–
COc1cc(-c2cc3c(s2)c(=O)n(-c2cncc(OC4CC4)c2)c(=O)n3CCC#N)c(Cl)cc1F [Example 953]	8.28	36.3	–	–	–
Cn1nnc2cncc(-n3c(=O)c4sc(-c5ccccc5Cl)cc4n(CCC#N)c3=O)c21 [Example 772]	15.4	–	–	–	46.9
COc1ccc(Cl)c(-c2cc3[nH]c(=O)n(-c4cncc5ccc(C(F)F)cc45)c(=O)c3s2)c1 [Example 227]	–	25	11.3	–	–
O=c1[nH]c2sc(-c3ccccc3Cl)nc2c(=O)n1-c1cncc2ccccc12 [Example 78]	–	9530	404	–	–
O=c1[nH]c2cc(-c3c(Cl)cccc3-c3cn(CC(F)F)nn3)ccc2c(=O)n1-c1cncc2ccccc12 [Example 292]	–	169	120	–	–
COc1ccc(Cl)c(-c2cc3[nH]c(=O)n(-c4cncc5ccccc45)c(=O)c3cc2OC)c1 [Example 309]	–	26.7	56.9	–	–
COc1cncc(-n2c(=O)c3sc(-c4ccccc4C#N)cc3n(CCC#N)c2=O)c1 [Example 814]	44.6	–	–	–	134
COc1cc(-c2cc3c(s2)c(=O)n(-c2cncc4ccsc24)c(=O)n3CC#N)c(Cl)cc1F [Example 653]	2.58	4.45	–	–	–
COc1cc(-c2cc3c(s2)c(=O)n(-c2cncc(Cl)c2C)c(=O)n3CCC#N)c(Cl)cc1F (single isomer, unassigned) [Example 1033, 3-[6-(2-chloro-4-fluoro-5-methoxy-phenyl)-3-(5-chloro-4-methyl-3-pyridyl)-2,4-dioxo-thieno[3,2-d]pyrimidin-1-yl]propanenitrile]	420	–	–	488	–
O=c1[nH]c2cc(-c3ccccc3Cl)ncc2c(=O)n1-c1cncc2ccccc12 [Example 163, 7-(2-chlorophenyl)-3-(4-isoquinolyl)-1H-pyrido[4,3-d]pyrimidine-2,4-dione]	–	932	489	–	–
N#Cc1cncc(-c2cccc(Cl)c2-c2ccc3c(=O)n(-c4cncc5ccccc45)c(=O)[nH]c3c2)c1 [Example 298]	–	10.8	6.29	–	–
COc1cc(-c2cc3c(s2)c(=O)n(-c2cncc4ccccc24)c(=O)n3[C@H]2C[C@@H](C#N)C2)c(Cl)cc1F [Example 694]	19.3	61	–	–	–
COc1cc(-c2cc3c(s2)c(=O)n(-c2cncc4nnn(C)c24)c(=O)n3CCC#N)c(Cl)cc1F [Example 936, 3-(6-(2-chloro-4-fluoro-5-methoxyphenyl)-3-(1-methyl-1H-[1,2,3]triazolo[4,5-c]pyridin-7-yl)-2,4-dioxo-3,4-dihydrothieno[3,2-d]pyrimidin-1(2H)-yl)propanenitrile]	5.46	6.65	–	–	–
O=c1[nH]c2cc(-c3ccccc3Cl)sc2c(=O)n1-c1cncc2cccnc12 (single isomer, unassigned) [Example 463, 6-(2-chlorophenyl)-3-(1,6-naphthyridin-8-yl)thieno[3,2-d]pyrimidine-2,4(1H,3H)-dione]	202	–	–	464	–
Cn1ncc2c(-c3cc4[nH]c(=O)n(-c5cncc6cnn(C)c56)c(=O)c4s3)c(Cl)ccc21 [Example 670]	146	585	–	–	–
COc1ccc(Cl)c(-c2cc3[nH]c(=O)n(-c4cncc5ccc(N6CCO[C@H](C(F)(F)F)C6)cc45)c(=O)c3s2)c1 [Example 415]	11.7	–	–	–	26.6
